Measured values as given in patent US8283310B2, “Hepatitis C virus inhibitors” (priority 2008, dated 2012).

Experiments:
[1] = biological target: T1, HCV NS3/4A protease complex (Hepatitis C virus genotype 1a, UniProt P27958, C1454S/C1711G); assay: FRET peptide assay to monitor HCV NS3/4A proteolytic activity; format: biochemical; conditions: recombinant NS3/4A protease complex, RET S1 FRET peptide substrate; strain not given
T1 construct: DNA encoding the recombinant HCV NS3/4A protease complex (amino acids 1027 to 1711) for these strains; inferred from pET21b vector and Ni-NTA purification; made in house; host or cells: Escherichia coli BL21 (DE3), pET21b
Description: HCV NS3 protease complexes, derived from the BMS strain, H77 strain or J4L65 strain, were generated, as described below. These purified recombinant proteins were generated for use in a homogeneous assay (see below) to provide an indication of how effective compounds of the present disclosure would be in inhibiting HCV NS3 proteolytic activity.
The H77 and J4L6S strains were used for production of recombinant NS3/4A protease complexes. DNA encoding the recombinant HCV NS3/4A protease complex (amino acids 1027 to 1711) for these strains was manipulated as described by P. Gallinari et al. (see Gallinari P, Paolini C, Brennan D, Nardi C, Steinkuhler C, De Francesco R. Biochemistry. 38(17):5620-32, (1999)). Briefly, a three-lysine solubilizing tail was added at the 3′-end of the NS4A coding region. The cysteine in the P1 position of the NS4A-NS4B cleavage site (amino acid 1711) was changed to a glycine to avoid the proteolytic cleavage of the lysine tag. Furthermore, a cysteine to serine mutation was introduced by PCR at amino acid position 1454 to prevent the autolytic cleavage in the NS3 helicase domain. […]

[2] = tested on: HCV genotype 1a replicon (H77) in HUH-7 cells; assay: HCV replicon luciferase reporter assay, genotype 1a; format: cell-based; conditions: Hepatitis C virus, Huh-7, 72 h, read-out: 1a/1b EC50 (nM): 1a
Description: A stable HCV genotype 1a replicon cell line was generated with a similar genomic map as described above for the 1b replicon cell line. An additional adaptive substitution at position 1496 (proline to leucine) was also introduced (Lemm J A, Liu M, Rose R E, Fridell R, O′Boyle Ii D R, Colonno R, Gao M. Intervirology. 2005 48(2-3):183-91). The sequence of the H77 infectious clone (see above for details) was used to generate the sub-replicon which also contained the selectable marker G418 and the Renilla luciferase gene.
(§1) The HCV replicon luciferase assay was developed to monitor the inhibitory effects of compounds described in the disclosure on HCV viral replication. […] After 3 days incubation at 37° C., cells were analyzed for Renilla Luciferase activity using the EnduRen as substrate (Promega cat 4E6485). […] The plates were incubated for 2 hrs at 37° C. and then read immediately for 30 seconds on the Viewlux Imager (PerkinElmer) using a luminescence program. […] The fluorescence signal from each well was read, with an excitation wavelength at 525/10 nm and an emission wavelength of 598/10 nm, on the Viewlux Imager.
(§2) The percentage inhibition was calculated using the formula below:
(§3) [formula] The values were graphed and analyzed using XLfit to obtain the EC50 value.

[3] = tested on: HCV strain 1b replicon in HUH-7 cells; assay: HCV replicon luciferase reporter assay, genotype 1b; format: cell-based; conditions: Hepatitis C virus, Huh-7, 72 h, read-out: 1a/1b EC50 (nM): 1b
Description: An HCV replicon whole cell system was established as described by Lohmann V, Korner F, Koch J, Herian U, Theilmann L, Bartenschlager R., Science 285(5424):110-3 (1999). This system enabled us to evaluate the effects of our HCV Protease compounds on HCV RNA replication. Briefly, using the HCV strain 1b sequence described in the Lohmann paper (Assession number: AJ238799), an HCV cDNA was synthesized by Operon Technologies, Inc. (Alameda, Calif.), and the full-length replicon was then assembled in plasmid pGem9zf(+) (Promega, Madison, Wis.) using standard molecular biology techniques. […]
as §1, §2, §3

T1 sequence (P27958 1027-1711 C1454S/C1711G, one chain of several): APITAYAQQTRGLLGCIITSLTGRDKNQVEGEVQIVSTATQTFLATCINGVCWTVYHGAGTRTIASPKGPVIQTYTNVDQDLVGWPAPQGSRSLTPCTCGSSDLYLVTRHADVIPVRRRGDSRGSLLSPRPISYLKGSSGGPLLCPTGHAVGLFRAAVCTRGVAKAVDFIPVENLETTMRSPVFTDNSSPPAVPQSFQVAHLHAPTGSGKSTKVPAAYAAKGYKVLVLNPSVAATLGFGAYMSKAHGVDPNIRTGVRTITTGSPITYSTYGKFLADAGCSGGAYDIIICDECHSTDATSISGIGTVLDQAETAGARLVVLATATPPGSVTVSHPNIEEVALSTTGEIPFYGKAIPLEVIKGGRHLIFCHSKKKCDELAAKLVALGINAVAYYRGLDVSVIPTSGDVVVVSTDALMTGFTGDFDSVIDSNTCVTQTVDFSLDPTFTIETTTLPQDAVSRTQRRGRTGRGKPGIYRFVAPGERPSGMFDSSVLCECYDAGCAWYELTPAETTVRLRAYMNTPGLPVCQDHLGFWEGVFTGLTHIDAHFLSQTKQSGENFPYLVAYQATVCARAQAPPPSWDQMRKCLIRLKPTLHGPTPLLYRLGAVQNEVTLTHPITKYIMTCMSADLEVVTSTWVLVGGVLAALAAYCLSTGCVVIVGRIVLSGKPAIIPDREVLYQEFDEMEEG

Row | Compound | IC50 [1] [nM] | EC50 [2] [nM] | EC50 [3] [nM]
1 | CC(C)(C)OC(=O)N[C@H](C(=O)N1C[C@]2(c3ccc(-c4ccccc4)cc3)C[C@H]1C(=O)N[C@@]1(C[C@H]1C(F)F)C(=O)NS(=O)(=O)C1(CCCCC/C=C\CS2)CC1)C(C)(C)C [Compound 2] | 4 | 95 | 33
2 | CC(C)(C)OC(=O)N[C@H](C(=O)N1C[C@]2(c3ccc(-c4ccccc4)cc3)C[C@H]1C(=O)N[C@@]1(C[C@H]1C(F)F)C(=O)NS(=O)(=O)C1(CCCCC/C=C/CS2)CC1)C(C)(C)C [Compound 1] | 2 | 49 | 21
